Data: patent US12364719B2, “Bacillus subtilis strains improving animal performance parameters” (priority 2017, dated 2025)
Where two headings read alike, the source gives them in different places.

System: Clostridium perfringens strain 56
Format: in vivo, Male Ross 308 broilers
Conditions: for Mean score (NE): 0-6 score

## CC1(C)S[C@@H]2[C@H](NC(=O)[C@H](N)c3ccc(O)cc3)C(=O)N2[C@H]1C(=O)O [Amoxicillin]
Day 25, lesion score 2, infected day 19-22
  % NE (birds positive to macroscopic necrotic enteritis lesions): 44%
Day 25 and 26 combined
  % NE (birds positive to macroscopic necrotic enteritis lesions): 29%
  Mean score (NE): 1.315
Day 26
  Mean score (NE): 1.07
Day 26, lesion score 2, infected day 19-22
  % NE (birds positive to macroscopic necrotic enteritis lesions): 14%
